Results from patent US20160143913A1, “COMBINATION” (Novartis AG, priority 2009, published 2016).

Tests used:
MDA-MB-175-VII = assay: Cell growth inhibition assay (Cell Titer Glo), MDA-MB-175-VII; assay type: cell-based, Human; settings: Homo sapiens, 72 h; MDA-MB-175-VII breast; KRAS/RAF WT; PIK3CA/PTEN WT; single agent, 3 days, mean ± std
Text: (§1) Human breast tumor line, MDA-MB-175-VII, human colon tumor lines, Colo-205, DLD-1, HCT-8, HT-29, LS-1034, NCI-H508, RKO, SW1417, SW1463, SW480, SW837 and T84, and human lung tumor lines, A427, A549, Calu 3, Calu 6, HCC827, NCI-H1155, NCI-H1355, NCI-H1792, NCI-H23, NCI-H727, SW1573 and SW900 were from ATCC. Human breast tumor line EFM-19 was from German Collection of Microorganisms and Cell Cultures. Human lung tumor line COR-L23 was from European Collection of Cell Cultures (UK). Human colon tumor line KM12 and human lung tumor line Hop62 were from National Cancer Institute. MV522 was from University of California at San Diego. All lines were cultured in RPMI 1640 medium containing 10% fetal bovine serum (FBS).
(§2) All cells were cultured for a minimum of 72 hours prior to cell plating. Cells were assayed in a 96-well tissue culture plate (NUNC 136102) of RPMI medium containing 10% FBS for all cells at 1,000 cells per well. […] ATP levels were determined by adding Cell Titer Glo® (Promega) according to the manufacturer's protocol. Briefly, Cell Titer Glo® was added each plate, incubated for 30 minutes then luminescent signal was read on the SpectraMax L plate reader with a 0.5 sec integration time.
(§3) Inhibition of cell growth was estimated after treatment with compound or combination of compounds for three days and comparing the signal to cells treated with vehicle (DMSO). Cell growth was calculated relative to vehicle (DMSO) treated control wells. […]
(§4) Combination effects on potency were evaluated using Combination Index (CI) which was calculated with the back-interpolated IC50 values and the mutually non-exclusive equation derived by Chou and Talalay (1): […]
(§5) The combination effects on the response scale were quantified by Excess Over Highest Single Agent (EOHSA) based on the concept of nonlinear blending as described in detail by Peterson and Novick (2007) and Peterson (2010) [(2;3) [Peterson and Novick, 2007; Peterson, 2010]. […]

RKO = assay: Cell growth inhibition assay (Cell Titer Glo), RKO; assay type: cell-based; settings: Homo sapiens, 72 h; RKO colon; BRAF_V600E; PIK3CA_H1047R; single agent, 3 days, mean ± std
Text: as §1
as §2, with “plating.” for “plating. Cells were assayed in a 96-well tissue culture plate (NUNC 136102) of RPMI medium containing 10% FBS for all cells at 1,000 cells per well.”
as §3

DLD1 = assay: Cell growth inhibition assay (Cell Titer Glo), DLD1; assay type: cell-based; settings: Homo sapiens, DLD-1, 72 h; DLD1 colon; KRAS_G13D; PIK3CA_E545K; single agent, 3 days, mean ± std
Text: as §1
as §2, with “plating.” for “plating. Cells were assayed in a 96-well tissue culture plate (NUNC 136102) of RPMI medium containing 10% FBS for all cells at 1,000 cells per well.”
as §3

T84 = assay: Cell growth inhibition assay (Cell Titer Glo), T84; assay type: cell-based; settings: Homo sapiens, 72 h; T84 colon; KRAS_G13D; PrK3CA_E542K; single agent, 3 days, mean ± std
Text: as §1
as §2, with “plating.” for “plating. Cells were assayed in a 96-well tissue culture plate (NUNC 136102) of RPMI medium containing 10% FBS for all cells at 1,000 cells per well.”
as §3

KM12 = assay: Cell growth inhibition assay (Cell Titer Glo), KM12; assay type: cell-based; settings: Homo sapiens, 72 h; KM12 colon; KRAS/RAF WT; PTEN_K267*; single agent, 3 days, mean ± std
Text: as §1
as §2, with “plating.” for “plating. Cells were assayed in a 96-well tissue culture plate (NUNC 136102) of RPMI medium containing 10% FBS for all cells at 1,000 cells per well.”
as §3

SW837 = assay: Cell growth inhibition assay (Cell Titer Glo), SW837; assay type: cell-based; settings: Homo sapiens, 72 h; SW837 colon; KRAS_G12C; PIK3CA/PTEN WT; single agent, 3 days, mean ± std
Text: as §1
as §2, with “plating.” for “plating. Cells were assayed in a 96-well tissue culture plate (NUNC 136102) of RPMI medium containing 10% FBS for all cells at 1,000 cells per well.”
as §3

LS-1034 = assay: Cell growth inhibition assay (Cell Titer Glo), LS-1034; assay type: cell-based; settings: Homo sapiens, 72 h; LS-1034 colon; KRAS_A146T; PIK3CA/PTEN WT; single agent, 3 days, mean ± std
Text: as §1
as §2, with “plating.” for “plating. Cells were assayed in a 96-well tissue culture plate (NUNC 136102) of RPMI medium containing 10% FBS for all cells at 1,000 cells per well.”
as §3

Colo-205 = assay: Cell growth inhibition assay (Cell Titer Glo), Colo-205; assay type: cell-based; settings: Homo sapiens, 72 h; Colo-205 colon; BRAF_V600E; PIK3CA/PTEN WT; single agent, 3 days, mean ± std
Text: as §1
as §2, with “plating.” for “plating. Cells were assayed in a 96-well tissue culture plate (NUNC 136102) of RPMI medium containing 10% FBS for all cells at 1,000 cells per well.”
as §3

SW1463 = assay: Cell growth inhibition assay (Cell Titer Glo), SW1463; assay type: cell-based; settings: Homo sapiens, 72 h; SW1463 colon; KRAS_G12C; PIK3CA/PTEN WT; single agent, 3 days, mean ± std
Text: as §1
as §2, with “plating.” for “plating. Cells were assayed in a 96-well tissue culture plate (NUNC 136102) of RPMI medium containing 10% FBS for all cells at 1,000 cells per well.”
as §3

SW480 = assay: Cell growth inhibition assay (Cell Titer Glo), SW480; assay type: cell-based; settings: Homo sapiens, 72 h; SW480 colon; PIK3CA/PTEN WT; single agent, 3 days, mean ± std
Text: as §1
as §2, with “plating.” for “plating. Cells were assayed in a 96-well tissue culture plate (NUNC 136102) of RPMI medium containing 10% FBS for all cells at 1,000 cells per well.”
as §3

SW1417 = assay: Cell growth inhibition assay (Cell Titer Glo), SW1417; assay type: cell-based; settings: Homo sapiens, 72 h; SW1417 colon; BRAF_V600E; PIK3CA/PTEN WT; single agent, 3 days, mean ± std
Text: as §1
as §2, with “plating.” for “plating. Cells were assayed in a 96-well tissue culture plate (NUNC 136102) of RPMI medium containing 10% FBS for all cells at 1,000 cells per well.”
as §3

COR-L23 = assay: Cell growth inhibition assay (Cell Titer Glo), COR-L23; assay type: cell-based; settings: Homo sapiens, 72 h; COR-L23 lung; KRAS_G12V; PIK3CA/PTEN WT; single agent, 3 days, mean ± std
Text: as §1
as §2, with “plating.” for “plating. Cells were assayed in a 96-well tissue culture plate (NUNC 136102) of RPMI medium containing 10% FBS for all cells at 1,000 cells per well.”
as §3

NCI-H1355 = assay: Cell growth inhibition assay (Cell Titer Glo), NCI-H1355; assay type: cell-based; settings: Homo sapiens, 72 h; NCI-H1355 lung; KRAS_G13C; PIK3CA/PTEN WT; single agent, 3 days, mean ± std
Text: as §1
as §2, with “plating.” for “plating. Cells were assayed in a 96-well tissue culture plate (NUNC 136102) of RPMI medium containing 10% FBS for all cells at 1,000 cells per well.”
as §3

NCI-H1792 = assay: Cell growth inhibition assay (Cell Titer Glo), NCI-H1792; assay type: cell-based; settings: Homo sapiens, 72 h; NCI-H1792 lung; KRAS_G12C; PIK3CA/PTEN WT; single agent, 3 days, mean ± std
Text: as §1
as §2, with “plating.” for “plating. Cells were assayed in a 96-well tissue culture plate (NUNC 136102) of RPMI medium containing 10% FBS for all cells at 1,000 cells per well.”
as §3

NCI-H23 = assay: Cell growth inhibition assay (Cell Titer Glo), NCI-H23; assay type: cell-based; settings: Homo sapiens, 72 h; NCI-H23 lung; KRAS_G12C; PIK3CA/PTEN WT; single agent, 3 days, mean ± std
Text: as §1
as §2, with “plating.” for “plating. Cells were assayed in a 96-well tissue culture plate (NUNC 136102) of RPMI medium containing 10% FBS for all cells at 1,000 cells per well.”
as §3

Calu6 = assay: Cell growth inhibition assay (Cell Titer Glo), Calu6; assay type: cell-based; settings: Homo sapiens, Calu-6, 72 h; Calu6 lung; KRAS_Q61K; PIK3CA/PTEN WT; single agent, 3 days, mean ± std
Text: as §1
as §2, with “plating.” for “plating. Cells were assayed in a 96-well tissue culture plate (NUNC 136102) of RPMI medium containing 10% FBS for all cells at 1,000 cells per well.”
as §3

SW1573 = assay: Cell growth inhibition assay (Cell Titer Glo), SW1573; assay type: cell-based; settings: Homo sapiens, 72 h; SW1573 lung; KRAS_G12C; PIK3CA_K111E; single agent, 3 days, mean ± std
Text: as §1
as §2, with “plating.” for “plating. Cells were assayed in a 96-well tissue culture plate (NUNC 136102) of RPMI medium containing 10% FBS for all cells at 1,000 cells per well.”
as §3

HOP62 = assay: Cell growth inhibition assay (Cell Titer Glo), HOP62; assay type: cell-based; settings: Homo sapiens, HOP-62, 72 h; HOP62 lung; KRAS_G12C; PIK3CA/PTEN WT; single agent, 3 days, mean ± std
Text: as §1
as §2, with “plating.” for “plating. Cells were assayed in a 96-well tissue culture plate (NUNC 136102) of RPMI medium containing 10% FBS for all cells at 1,000 cells per well.”
as §3

SW900 = assay: Cell growth inhibition assay (Cell Titer Glo), SW900; assay type: cell-based; settings: Homo sapiens, 72 h; SW900 lung; KRAS_G12V; PIK3CA/PTEN WT; single agent, 3 days, mean ± std
Text: as §1
as §2, with “plating.” for “plating. Cells were assayed in a 96-well tissue culture plate (NUNC 136102) of RPMI medium containing 10% FBS for all cells at 1,000 cells per well.”
as §3

A427 = assay: Cell growth inhibition assay (Cell Titer Glo), A427; assay type: cell-based; settings: Homo sapiens, A-427, 72 h; A427 lung; KRAS_G12D; PIK3CA/PTEN WT; single agent, 3 days, mean ± std
Text: as §1
as §2, with “plating.” for “plating. Cells were assayed in a 96-well tissue culture plate (NUNC 136102) of RPMI medium containing 10% FBS for all cells at 1,000 cells per well.”
as §3

HCC827 = assay: Cell growth inhibition assay (Cell Titer Glo), HCC827; assay type: cell-based; settings: Homo sapiens, 72 h; HCC827 lung; KRAS/RAF WT; PIK3CA/PTEN WT; EGFR E746_A750 deletion mutation; single agent, 3 days, mean ± std
Text: as §1
as §2, with “plating.” for “plating. Cells were assayed in a 96-well tissue culture plate (NUNC 136102) of RPMI medium containing 10% FBS for all cells at 1,000 cells per well.”
as §3

CaLu3 = assay: Cell growth inhibition assay (Cell Titer Glo), CaLu3; assay type: cell-based; settings: Homo sapiens, Calu-3, 72 h; CaLu3 lung; KRAS/RAF WT; PIK3CA/PTEN WT; HER2+; single agent, 3 days, mean ± std
Text: as §1
as §2, with “plating.” for “plating. Cells were assayed in a 96-well tissue culture plate (NUNC 136102) of RPMI medium containing 10% FBS for all cells at 1,000 cells per well.”
as §3

human colon tumor lines = assay: Cell growth inhibition assay, colon lines; assay type: cell-based; settings: a subset of these colon cell lines (modest sensitivity), range over the lines, read-out: IC50 values, single agent
Text: as §1, §2, §3, §4, §5

human lung tumor lines = assay: Cell growth inhibition assay, lung tumor lines; assay type: cell-based; settings: COR-L23, A549, NCI-H1355, NCI-H1792, NCI-H23, Calu 6 and MV522, range over the lines, read-out: IC50s, single agent
Text: as §1
as §2, with “plating.” for “plating. Cells were assayed in a 96-well tissue culture plate (NUNC 136102) of RPMI medium containing 10% FBS for all cells at 1,000 cells per well.”
as §3

Cn1ncc(Cl)c1-c1cc(C(=O)N[C@H](CN)Cc2cccc(F)c2)sc1Cl [Compound B, N-{(1S)-2-amino-1-[(3-fluorophenyl)methyl]ethyl}-5-chloro-4-(4-chloro-1-methyl-1H-pyrazol-5-yl)-2-thiophenecarboxamide] gave an IC50 (MDA-MB-175-VII) of under 1000 nM, an IC50 (RKO) of 1810 ± 674 nM and an IC50 (DLD1) of over 10 µM. For the same compound, the IC50 (T84) was over 10 µM, the IC50 (KM12) was 2250 ± 1180 nM and the IC50 (SW837) was over 10 µM. For the same compound, the IC50 (LS-1034) was 4.34 ± 1.77 µM, the IC50 (Colo-205) was 2570 ± 137 nM and the IC50 (SW1463) was 9.72 ± 0.139 µM. The IC50 (SW480) was over 10 µM, the IC50 (SW1417) was over 10 µM and the IC50 (COR-L23) was 5.37 ± 3.52 µM. It also gave an IC50 (NCI-H1355) of 6.69 ± 3.49 µM, an IC50 (NCI-H1792) of 7.31 ± 2.87 µM and an IC50 (NCI-H23) of 7.12 ± 3.8 µM. It also gave an IC50 (Calu6) of 2150 ± 890 nM, an IC50 (SW1573) of over 8 µM and an IC50 (HOP62) of over 10 µM. For the same compound, the IC50 (SW900) was over 10 µM, the IC50 (A427) was over 8 µM and the IC50 (HCC827) was over 8 µM. The IC50 (CaLu3) was over 8 µM, the IC50 (human colon tumor lines) was 500 to 5000 nM and the IC50 (human lung tumor lines) was 2 to 7 µM.
